# Experimental data taken from patent US20210387983A1, “CRYSTALLINE ALK5 INHIBITORS AND USES THEREOF” (THERAVANCE BIOPHARMA R&D IP, LLC, priority 2020, published 2021).
# Assays:
# [1] = test system: TGF-β-stimulated SMAD3 phosphorylation in BEAS-2B cells; test: Cellular ALK5 potency assay, inhibition of TGF-β stimulated pSMAD3 formation in BEAS-2B cells; type: cell-based; conditions: Homo sapiens, 1 hour compound incubation, TGF-β 10 ng/mL for 30 minutes, read-out: pIC50 value, inhibition of TGF-β-stimulated pSMAD3 formation (converted)
# Protocol: The potency of the compound of Formula I for inhibition of TGF-β-stimulated SMAD3 phosphorylation was measured in BEAS-2B cells, a human lung epithelial cell line. TGF-β signals through activin receptor-like kinase 5 (ALK5) immediately prior to SMAD3 phosphorylation.
# BEAS-2B cells were grown using 50% DMEM (Life Technologies) and 50% F-12 (Life Technologies) media, supplemented with 10% Fetal Bovine Serum (ATCC), 25 mM HEPES (Life Technologies), and 1× Pen-Strep (Life Technologies). Cells were cultured in a humidified incubator set at 37° C., 5% CO2, and trypsonized using 0.25% Trypsin with 0.5% polyvinylpyrrolidone (PVP).
# For the assay, BEAS-2B cells were seeded at 7,500 cells/well (25 μL/well) in a 384-well plate and cultured overnight. Before dosing, growth media was aspirated and the wells were rinsed with HBSS Buffer (HBSS with Calcium and Magnesium, Life Technologies) supplemented with 25 mM HEPES (Life Technologies) and 1% Bovine Serum Albumin (Roche). […] AlphaLISA Acceptor and Detector beads (PerkinElmer) were added 2 hours apart, then incubated overnight to be read the next day. The potency of the compound was determined through analysis of dose-dependent quantified changes in pSMAD3 signal from baseline (non-compound treated TGF-β stimulated cells). Data are expressed as pIC50 (negative decadic logarithm IC50) values.
# SMAD3 phosphorylation = test: Cardiac PK/PD: systemic target engagement, pSMAD3/tSMAD3 in heart by Meso-Scale Discovery; type: in vivo, C57bl/6n mice; conditions: mice, oral aspiration 2 or 4 hours prior to harvest; TGF-β1 i.v. challenge; heart samples
# Protocol: C57bl/6n mice were acclimated for at least 3 days before use. On the day of the experiment, animals were grouped into sample sizes of 5-10. Test compounds were pre-treated via oral aspiration (OA; animals are forced to aspirate solution into the lungs by covering their nose). All oral aspirations were performed using a 50 μL dosing volume and accompanied by a vehicle control group (3% glycerol in PBS, pH=4). Following compound OA treatment, the animals were returned to their home cages and monitored. Compound pre-treatment occurred either 2 or 4 hours prior to harvest. One hour prior to harvest, animals were challenged via tail-vein intravenous injection with PBS vehicle or recombinant human TGF-β1 protein (1 μg per animal dissolved in 1 part 4 mM HCl and 2 parts 3% glycerol in PBS). Five minutes prior to harvest, animals were deeply anesthetized under isoflurane and euthanized via cervical dislocation. Plasma, left lung lobes and whole hearts were collected during harvest.
# Blood plasma was harvested as described above in the Lung PK/PD experiment. Whole hearts were processed in the same manners as left lung lobes in the Lung PK/PD experiment. Left lung lobes were homogenized in 500 μL of water and submitted for BA Analysis.
# Heart samples were processed using MSD in the same manner as the left lung lobes above. […] Plasma, lung and heart drug concentrations were quantified.
# [2] = In vitro human liver microsome intrinsic clearance (HLM Clint); type: in vitro ADME; conditions: liver microsomes, pH 7.4, 0.1 μM test compound, 0.1 mg/mL protein, 1 mM NADPH, 37° C.
# Protocol: Liver microsomes were used for in vitro determination of hepatic clearance of the compound of Formula I. A microsomal incubation cofactor solution was prepared with 100 mM potassium phosphate buffered to pH 7.4 (BD Biosciences, Woburn, Mass.) supplemented with 2 mM NADPH (Sigma-Aldrich, St. Louis, Mo.). 10 mM DMSO stocks of test compound were diluted and spiked into the cofactor solution to yield a 0.2 μM concentration (0.02% v/v DMSO). Aliquots of frozen human liver microsomes (Bioreclamation IVT, Baltimore Md.) were thawed and diluted into 100 mM potassium phosphate buffer to yield microsomal protein concentrations of 0.2 mg/mL. Cofactor/drug and microsomal solutions were pre-warmed separately for 4 minutes in a water bath held at 37° C. Incubations (n=1) were started by the combination of equal volumes of cofactor/drug solution with microsomal solution. The final concentration of test compound was 0.1 μM with a final protein concentration of 0.1 mg/mL and final NADPH concentration of 1 mM. Samples were collected at times 0, 3, 8, 15, 30, and 45 minutes to monitor the disappearance of test compound. At each time point, 50 μL of incubation sample was removed and spiked into 25 μL of water plus 3% formic acid plus Internal Standard for reaction termination. Samples were then injected onto an AB Sciex API 4000 triple quadrupole mass spectrometer for quantitation by LC-MS/MS. […]
# [3] = test system: DSS-induced intestinal fibrosis; test: Prophylactic study in murine DSS-induced intestinal fibrosis model; type: in vivo, C57BL/6J mice; conditions: oral gavage starting on day one of DSS administration; sacrifice 9 weeks
# Protocol: The compound of Formula I is expected to slow, halt or reverse the progression of intestinal fibrosis in a murine colitis model. Six to 8-week old male C57BL/6J mice are tagged and weighed. The drinking water of the animals is treated with 2.5% dextran sulfate sodium (DSS) for 7 days to induce acute colitis, followed by 2 days of normal drinking water. Three, 3-week cycles of 2.5% DSS treatment (1 week of 2.5% DSS in water; 2 weeks of normal water) are then completed to induce intestinal fibrosis. Starting on day one of DSS administration, mice are treated with either vehicle control or the compound of Formula I at an appropriate amount and frequency via oral gavage (e.g., once daily). The animals are sacrificed 9 weeks after the first DSS administration, then distal, mid and proximal sections of the colon harvested for histologic analysis, RNA extraction and cytokine measurement.
smiles,measurement,setting,value
"C[C@@H]1CN(CCNc2cnc3ccc(-c4nc[nH]c4-c4cc(Cl)ccc4F)nc3c2)C[C@H](C)N1 [compound of Formula I, 6-(5-(5-chloro-2-fluorophenyl)-1H-imidazol-4-yl)-N-(2-((3S,5R)-3,5-dimethylpiperazin-1-yl)ethyl)-1,5-naphthyridin-3-amine]",IC50,[1],25.1 to 158 nM
same,"systemic target engagement, as measured by SMAD3 phosphorylation inhibition",SMAD3 phosphorylation,minimal target engagement systemically
same,microsomal CLint at 0.1 μM,[2],> 250 µL/min/mg
same,intestinal fibrosis,[3],slow or prevent intestinal fibrosis
